Several values for one entry are separate records, joined by “and”; a condition that tells them apart may be missing. Equal values may be shown once. Entries after “also recorded” stand apart in the source; their conditions may differ.
How the values were obtained:
[1] = test system: eyelashes of subjects with idiopathic hypotrichosis; assay: GEA / ESQ Domain 2 responder analysis, 1-year clinical study, idiopathic hypotrichosis; assay type: in vivo, human
Excerpt: A one-year, multicenter, randomized, double-masked, vehicle-controlled study. Adult post-chemotherapy and idiopathic eyelash hypotrichosis subjects were enrolled based on their score of 1 or 2 on a four point ordinal Global Eyelash Assessment (GEA) scale, and in addition having a low score on a PRO measure associated with 'psychological impact' of the condition, a domain-2 of the Eyelash Satisfaction Questionnaire (ESQ). The study involved two treatment periods of six months each. In the first treatment period, subjects for both populations were randomized 3:1 for QD bimatoprost: vehicle treatment. In the second 6-month treatment period, all subjects were moved to bimatoprost treatment, except for a group of bimatoprost treated idiopathic hypotrichosis subjects (n=55) who were switched to vehicle to investigate the effect of drug discontinuation. The study included 9 visits over the 12-month treatment period. The primary end point was the proportion of responders within each treatment group based on a composite measure of GEA and ESQ Domain-2 (investigator assessed eyelash prominence and subject's assessment of 'psychological impact' related to eyelashes) at month-4. This multicenter, double-masked, randomized, parallel-group study included two 6-month treatment periods. Subjects with idiopathic hypotrichosis were randomized to 3 treatment groups: 1) treatment period 1 (TP1) and TP2: bimatoprost; 2) TP1: bimatoprost; TP2: vehicle; and 3) TP1: vehicle; TP2: bimatoprost. Subjects with chemotherapy-induced hypotrichosis were randomized to 2 treatment groups: 1) TP1: bimatoprost or vehicle; and 2) TP2: bimatoprost. The primary endpoint was a composite of at least a 1-grade improvement in investigator-assessed Global Eyelash Assessment (GEA), and at least a 3-point improvement in subject-reported Eyelash Satisfaction Questionnaire (ESQ) Domain 2 (self-perceived confidence, attractiveness, and professionalism) at month 4. Secondary measures included digitally assessed eyelash characteristics (i.e., eyelash length, fullness, and darkness). Idiopathic hypotrichosis subjects were randomized to 3 treatment arms in a 2:1:1 ratio: bimatoprost during both treatment periods; vehicle in TP1 and bimatoprost in TP2; and bimatoprost in TP1 and vehicle in TP2. Chemotherapy-induced hypotrichosis subjects were randomized in a 3:1 ratio to receive bimatoprost during both treatment periods or vehicle in TP1 followed by bimatoprost in TP2. Male or female subjects at least 18 years of age who met these criteria were eligible for inclusion in the study: a score of 1 or 2 on the clinician-graded global eyelash assessment (“GEA”); a score of 1 (very much disagree) or 2 (disagree) on each of 3 items (16 [confidence], 19 [attractiveness], and 18 [professionalism]) on the subject-assessed eyelash satisfaction questionnaire (“esq”); best-corrected visual acuity (“bcva”) score equivalent to a […] acuity of 20/100 or better in each eye; and intraocular pressure (“iop”) 20 mm hg or less in each eye. Subjects in the chemotherapy-induced hypotrichosis population also met the following inclusion criteria: inadequate eyelashes after completing chemotherapy; treatment for solid tumor type stage 1, 2, or 3a cancer; last chemotherapy treatment at least 4 to less than 16 weeks prior to baseline; and considered free of cancer. Key exclusion criteria included subjects with any eye disease or abnormality or a history of eye surgery. Subjects placed 1 drop of study treatment (i.e., bimatoprost 0.03% or vehicle) onto a sterile single-use-per eye applicator and applied it to the upper eyelid margin of 1 eye; a second applicator was used for the contralateral eye. Treatment was applied once daily in the evening throughout the study. […]

[2] = Safety, overall study population (adverse events, ophthalmic examination, IOP, iris color); assay type: in vivo, human
Method: Safety measures included adverse events (AEs), ophthalmic examination (ophthalmoscopy [dilated], biomicroscopy, IOP, iris color assessment, and BCVA). AEs were monitored throughout the study by the investigator.
The 12-month data were the primary focus of the safety evaluation. Safety data were summarized with descriptive statistics (n, or frequency distributions [counts or percentages]). Biomicroscopic examinations and assessments of iris color, IOP, and BCVA were performed for each subject at screening/baseline and months 1, 2, 4, 6, 8, and 12 (or early termination prior to month 12); ophthalmoscopic examinations (dilated) were performed at screening/baseline and months 6 and 12 (or early termination prior to month 12). Two IOP measurements were taken for each eye at each visit; a third measurement was taken if the difference between the first 2 measurements was more than 2 mm Hg. The average or median IOP was determined in the event that 2 or 3 measurements were made, respectively. The IOP value analyzed at each visit was the average IOP of the subject's 2 eyes. Change and percent change from baseline in IOP were summarized by descriptive statistics. Between-group comparison will be performed using the 1-way analysis of variance.
Iris color assessments were performed using a 10-category subjective classification: blue, blue-gray, blue/gray-brown, gray, green, green-brown, hazel, brown, dark brown, and other.

[3] = Bim/Veh group (n = 60), Month 1 (on bimatoprost)
[4] = Bim/Veh group (n = 60), Month 2 (on bimatoprost)
[5] = Bim/Veh group (n = 60), Month 4 (on bimatoprost)
[6] = Bim/Veh group (n = 60), Month 6 (on bimatoprost)
[7] = Bim/Veh group (n = 60), Month 7 (vehicle since month 6)
[8] = Bim/Veh group (n = 60), Month 8 (vehicle since month 6)
[9] = Bim/Veh group (n = 60), Month 10 (vehicle since month 6)
[10] = Bim/Veh group (n = 60), Month 12 (vehicle since month 6)
[11] = Month 4, all bimatoprost TP1 (n = 179)
[12] = Month 6, all bimatoprost TP1 (n = 179)
[13] = overall population during bimatoprost treatment periods
[14] = subjects treated with bimatoprost, 10-category scale

CCNC(=O)CCC/C=C\C[C@@H]1[C@@H](/C=C/[C@@H](O)CCc2ccccc2)[C@H](O)C[C@@H]1O [Bim 0.03%, bimatoprost]
Primary composite endpoint responders (≧1-grade GEA and ≧3-point ESQ Domain 2 improvement) [1, 3]: 0.0%
≧1-Grade Improvement From Baseline GEA Score [1, 3]: 10.0%
≧2-Grade Improvement From Baseline GEA Score [1, 3]: 0.0%
≧3-Point Improvement From Baseline ESQ Domain 2 Score [1, 3]: 13.3%
Primary composite endpoint responders (≧1-grade GEA and ≧3-point ESQ Domain 2 improvement) [1, 4]: 13.3%
≧1-Grade Improvement From Baseline GEA Score [1, 4]: 40.0%
≧2-Grade Improvement From Baseline GEA Score [1, 4]: 3.3%
≧3-Point Improvement From Baseline ESQ Domain 2 Score [1, 4]: 25.0%
Primary composite endpoint responders (≧1-grade GEA and ≧3-point ESQ Domain 2 improvement) [1, 5]: 41.7%
≧1-Grade Improvement From Baseline GEA Score [1, 5]: 71.7%
≧2-Grade Improvement From Baseline GEA Score [1, 5]: 25.0%
≧3-Point Improvement From Baseline ESQ Domain 2 Score [1, 5]: 48.3%
Primary composite endpoint responders (≧1-grade GEA and ≧3-point ESQ Domain 2 improvement) [1, 6]: 48.3%
≧1-Grade Improvement From Baseline GEA Score [1, 6]: 76.7%
≧2-Grade Improvement From Baseline GEA Score [1, 6]: 30.0%
≧3-Point Improvement From Baseline ESQ Domain 2 Score [1, 6]: 56.7%
Primary composite endpoint responders (≧1-grade GEA and ≧3-point ESQ Domain 2 improvement) [1, 7]: 51.7%
≧1-Grade Improvement From Baseline GEA Score [1, 7]: 78.3%
≧2-Grade Improvement From Baseline GEA Score [1, 7]: 30.0%
≧3-Point Improvement From Baseline ESQ Domain 2 Score [1, 7]: 56.7%
Primary composite endpoint responders (≧1-grade GEA and ≧3-point ESQ Domain 2 improvement) [1, 8]: 50.0%
≧1-Grade Improvement From Baseline GEA Score [1, 8]: 78.3%
≧2-Grade Improvement From Baseline GEA Score [1, 8]: 28.3%
≧3-Point Improvement From Baseline ESQ Domain 2 Score [1, 8]: 55.0%
Primary composite endpoint responders (≧1-grade GEA and ≧3-point ESQ Domain 2 improvement) [1, 9]: 20.0%
≧1-Grade Improvement From Baseline GEA Score [1, 9]: 46.7%
≧2-Grade Improvement From Baseline GEA Score [1, 9]: 8.3%
≧3-Point Improvement From Baseline ESQ Domain 2 Score [1, 9]: 43.3%
Primary composite endpoint responders (≧1-grade GEA and ≧3-point ESQ Domain 2 improvement) [1, 10]: 11.7%
≧1-Grade Improvement From Baseline GEA Score [1, 10]: 35.0%
≧2-Grade Improvement From Baseline GEA Score [1, 10]: 5.0%
≧3-Point Improvement From Baseline ESQ Domain 2 Score [1, 10]: 38.3%
Primary composite endpoint responders (≧1-grade GEA and ≧3-point ESQ Domain 2 improvement) [1, 11]: 40.2%
Responders with ≧1-grade increase in GEA score [1, 11]: 74.3%
Responders with ≧2-grade increase in GEA score [1, 11]: 25.7%
Responders with ≧3-point increase in ESQ Domain 2 [1, 11]: 47.5%
Responders with ≧1-grade increase in GEA score ([1]; Month 4, all bimatoprost TP1 (n = 179), listed as Bimatoprost): 74.3%
Responders with ≧1-grade increase in GEA score ([1]; Month 4, all bimatoprost TP1 (n = 179), listed as bimatoprost): 74.3% and > 70%
Primary composite endpoint responders (≧1-grade GEA and ≧3-point ESQ Domain 2 improvement) [1, 12]: 47.5%
Responders with ≧1-grade increase in GEA score [1, 12]: 77.7%
Responders with ≧2-grade increase in GEA score [1, 12]: 30.7%
Responders with ≧3-point increase in ESQ Domain 2 [1, 12]: 55.9%
Time efficacy was maintained after drug discontinuation ([1]; bimatoprost 6 months then vehicle): about 2 months
1-category change in iris hyperpigmentation reported as an AE ([2]; about 2 months after discontinuation of bimatoprost and initiation of vehicle, mild): 1 subject
Greatest magnitude of mean change from baseline IOP ([2]; any time point, any group): less than 2 mm Hg
Subjects with biomicroscopy and ophthalmoscopy findings of at least a 2-severity grade increase from baseline ([2]; bimatoprost 0.03% followed by vehicle (6-month treatment period)): 5.0%
Subjects with biomicroscopy and ophthalmoscopy findings of at least a 2-severity grade increase from baseline ([2]; bimatoprost during both treatment periods (12-month treatment period)): 4.2%
Drug-related serious adverse events ([2]; both subpopulations, 12-month study): No drug-related serious adverse events were reported; also recorded: no serious AEs attributed to study treatment
Conjunctival hyperaemia [2, 13]: 12.1%
Erythema [2, 13]: 4.2%
Eyelid pruritus [2, 13]: 4.7%
Punctuate keratitis [2, 13]: 5.6%
1- to 2-category iris color change from dark to light [2, 14]: 6 subjects
1-category iris color change from light to dark [2, 14]: 5 subjects
Subjects with biomicroscopy and ophthalmoscopy findings of at least a 2-severity grade increase from baseline ([2]; vehicle followed by bimatoprost (6-month treatment period)): 2.4%
Subjects discontinued due to a treatment-related AE ([2]; whole study (study treatment), all in idiopathic subpopulation): 2.8%
Enophthalmos leading to treatment discontinuation ([2]; whole study, mild/moderate): 1 subject

From patent US9216183B2, “Topical treatment for chemotherapy induced eyelash loss or hypotrichosis using prostamide F2 alpha agonists” (ALLERGAN, INC., priority 2002, dated 2015)
